Assay results as given in article PMC11820905, “Rational Design, Synthesis, and In Vitro Activity of Heterocyclic Gamma-Butyrobetaines as Potential Carnitine Acetyltransferase Inhibitors” (Molecules, 2025).

Columns and labels:
[1] = target: T1, Carnitine acetyltransferase isolated from pigeon breast muscle (Columba livia, UniProt P52826); test: CAT inhibition, IC50 determination (DTNB/Ellman reaction, absorbance at 405 nm); type: biochemical; settings: c(L-carnitine) = 50.56 μM; 5 min preincubation at 37 °C; eight inhibitor concentrations, triplicate over three days
T1 construct: CAT (isolated from pigeon breast muscle, ammonium sulfate suspension, CAS Number: 9029-90-7); purchased Sigma-Aldrich; host or cells: pigeon breast muscle (tissue-purified enzyme)
T1 sequence (P52826 31-627): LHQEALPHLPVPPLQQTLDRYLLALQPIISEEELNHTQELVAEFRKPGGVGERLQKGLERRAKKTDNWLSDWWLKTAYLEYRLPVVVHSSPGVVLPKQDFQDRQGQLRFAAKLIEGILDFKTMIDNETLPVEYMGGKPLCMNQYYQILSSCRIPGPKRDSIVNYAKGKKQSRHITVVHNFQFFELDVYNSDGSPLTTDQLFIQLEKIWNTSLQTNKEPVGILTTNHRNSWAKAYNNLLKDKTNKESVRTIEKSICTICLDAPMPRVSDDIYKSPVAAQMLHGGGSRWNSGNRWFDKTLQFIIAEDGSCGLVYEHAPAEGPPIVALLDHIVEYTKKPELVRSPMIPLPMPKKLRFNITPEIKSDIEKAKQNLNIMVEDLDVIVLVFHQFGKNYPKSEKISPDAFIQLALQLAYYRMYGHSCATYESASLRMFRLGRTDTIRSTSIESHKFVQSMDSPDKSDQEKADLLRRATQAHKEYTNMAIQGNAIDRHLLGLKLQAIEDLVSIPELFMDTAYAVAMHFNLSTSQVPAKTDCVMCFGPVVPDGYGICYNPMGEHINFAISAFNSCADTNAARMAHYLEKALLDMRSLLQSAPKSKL
Text: To assess the impact of the synthesized compounds on CAT activity and establish the structure-activity relationship, we initially determined the concentration needed to reduce the enzyme activity by 50% (IC50) under the same reaction conditions. We slightly modified a method proposed by Marquis and Fritz, which allows for the quantification of the consumed L-carnitine by observing its conversion to acetyl L-carnitine using a reaction with 5,5′-dithiobis-(2-nitrobenzoic acid) (DTNB or Ellman’s reagent) and CoA to produce 2-nitro-5-thiobenzoic acid (TNB). We opted to determine the IC50 at a substrate concentration that yields a [S]/Km ratio of about 0.01 (c(L-carnitine) = 50.56 μM and Km = 3.0 mM) to ensure that the IC50 is virtually independent of [S]. We also used a kinetic approach, measuring the reaction rate over a time interval Δt, during which the dependence is linear (approximately 10–15% substrate conversion). The readings were taken within the first minute after the reaction began, and the degree of inhibition was determined as described in Section 3.3.1. The IC50 values for each compound were obtained by analyzing the percentage inhibition at eight different inhibitor concentrations, with each measurement conducted in triplicate over three consecutive days. The average values of the IC50 obtained are outlined in Figure 4.
(§1) Carnitine acetyltransferase isolated from pigeon breast muscle, ammonium sulfate suspension (CAS Number: 9029-90-7), with activity 71 U/mg protein (1U converts 1 μmol L-carnitine and 1 μmol AcCoA in Acetylcarnitine and free CoA in 1 min) was diluted with phosphate buffer (0.5 M, pH = 7.6) to obtain stock solution with concentration 24 U/mL. Ellman reagent was freshly prepared just before use by dissolving 25 mg DTNB in 5 mL 1 mM solution of Na2EDTA in phosphate buffer (0.5 M, pH = 7.6), the final concentration of DTNB in this solution being 12.8 mM. AcCoA, L-carnitine, and each of the tested compounds were dissolved in distilled water in order to obtain desired stock solutions with concentration c (AcCoA) = 348.0 μM and c (L-carnitine) = 303.4 μM (for IC50 determination). Tris-buffer solution was prepared by dissolving Tris. HCl in distilled water and pH was adjusted with NaOH to pH = 7.6, the final concentration of the solution being 1 M. The final volume of the reaction mixture was 300 μL, which included 50 μL of each stock solution of CAT, AcCoA, L-carnitine, DTNB, Tris-buffer, and test compound. In control probes, 50 μL distilled water was added instead of test compound. A mixture of CAT, AcCoA, DTNB, Tris-buffer, and test compounds were incubated for 5 min at 37 °C. The reaction was initiated by adding L-carnitine, and the reaction rate was monitored by measuring the absorbance at 405 nm.
Inhibition activity was assessed by calculating the reaction rate during the initial minute, within the linear range of A/t, utilizing the following formula:%Inh = 100 × ((ΔA/Δt)control − (ΔA/Δt) Inh)/((ΔA/Δt) control)
To obtain preliminary data for the IC50 values, we initially screened each compound at a final concentration of 5 mM. […] The half-maximal inhibitory concentration (IC50) was determined by plotting the response (A) against the concentration (c) of the inhibitor. All analyses were performed in triplicate over three consecutive days, and the corresponding IC50 values were averaged.

CAT = target: CAT; set-up: method as in PMID 19912061; settings: comparison value for the established drug; no kinetic study of it described here; no reference printed at the place (cf. ref 44); cited from earlier work
[2] = target: T1, Carnitine acetyltransferase isolated from pigeon breast muscle; test: CAT enzyme kinetics, mechanism of inhibition and Ki; type: biochemical
Protocol: Substrate concentrations were selected in the range of 0.2 to five times the Km value (Km = 0.3 mM) to facilitate effective inhibition detection at elevated levels while ensuring sufficient substrate availability for the reaction at increased inhibitor concentrations. […] The experiments enabled identification of the inhibition mechanism alongside calculations of Km, Vmax, and Ki. We utilized SigmaPlot version 12.5 (Systat Software Inc. San Jose, CA, USA), which incorporates modules for regression analysis and various inhibition models. The numerical results are summarized in Table 3, while the corresponding Lineweaver –Burk and Michaelis–Menten kinetic plots are available in the Supplementary Materials.
as §1, with “HCl in distilled water and pH was adjusted with NaOH to pH = 7.6, the final concentration of the solution being 1 M. The final volume of the reaction mixture was 300 μL, which included 50 μL of each stock solution of CAT, AcCoA, L-carnitine, DTNB, Tris-buffer, and test compound. In control probes, 50 μL distilled water was added instead of test compound. A mixture of CAT, AcCoA, DTNB, Tris-buffer, and test compounds were incubated for 5 min at 37 °C.” left out
The absorbance at 405 nm was measured every 6 s between the 30th second and the 3rd minute for all probes (in the linear range). The initial velocity (v0) was determined as the intercept of the velocity (v) versus time (t) graph. […]

Row | SMILES | IC50 [1] | other results
1 | CCOC(=O)CCC[N+]1(C)CCCC1 [Compound 1-ester, 1-(4-ethoxy-4-oxobutyl)-1-methylpyrrolidin-1-ium bromide] | 28.5 ± 0.6 mM | –
2 | CCOC(=O)CCC[N+]1(C)CCCCC1 [Compound 2-ester, 1-(4-ethoxy-4-oxobutyl)-1-methylpiperidin-1-ium bromide] | 22.8 ± 1.8 mM | –
3 | CCOC(=O)CCC[N+]1(C)CCOCC1 [Compound 3-ester, 4-(4-ethoxy-4-oxobutyl)-4-methylmorpholin-4-ium bromide] | 29.9 ± 1.5 mM | –
4 | CN(C)c1cc[n+](CCCC(=O)[O-])cc1 [DMAP-GBB, 4-(4-(dimethylamino)pyridin-1-ium-1-yl)butanoate] | 10.4 ± 1.5 mM | –
5 | CC[N+](C)(C)CCCC(=O)[O-] [MeGBB, 4-(ethyldimethylammonio)butanoate, reference compound] | 9.32 ± 0.47 mM | –
6 | CCOC(=O)CCC[N+](C)(C)CC [MeGBB-ester, 4-ethoxy-N-ethyl-N,N-dimethyl-4-oxobutan-1-aminium bromide, reference compound] | 21.6 ± 1.4 mM | –
7 | C[N+](C)(C)NCCC(=O)[O-] [Meldonium, reference compound] | 11.4 mM | Ki (CAT): 1.63 mM
8 | Cn1cc[n+](CCCC(=O)[O-])c1 [Mim-GBB, 4-(1-methyl-1H-imidazol-3-ium-3-yl)butanoate] | 14 ± 0.9 mM | –
9 | C[N+]1(CCCC(=O)[O-])CCOCC1 [Morph-GBB, 4-(4-methylmorpholino-4-ium)butanoate] | 23.7 ± 2.2 mM | –
10 | C[N+]1(CCCC(=O)[O-])CCCCC1 [Pip-GBB, 4-(1-methylpiperidin-1-ium-1-yl)butanoate] | 5.78 ± 1.2 mM | –
11 | O=C([O-])CCC[n+]1ccccc1 [Pyr-GBB, 4-(pyridin-1-ium-1-yl)butanoate] | 43.6 ± 4.2 mM | –
12 | C[N+]1(CCCC(=O)[O-])CCCC1 [Pyrr-GBB, 4-(1-methylpyrrolidin-1-ium-1-yl)butanoate] | 14.1 ± 1.91 mM | –
13 | O=C([O-])CCC[n+]1ccc2ccccc2c1 [i-qui-GBB, 4-(isoquinolin-2-ium-2-yl)butanoate] | 2.24 ± 0.21 mM | Type of inhibition of CAT ([2]; best fit: highest R^2, lowest AIC): competitive inhibitor; Ki ([2]; competitive model, nonlinear regression (SigmaPlot), inhibitor 1.88 mM and 3.75 mM): 3.5 mM; Inhibition of CAT reaction rate versus blank samples ([2]; inhibitor concentration 0.94 mM): lack of inhibition
